Laboratory results taken from patent US20220411439A1, “POLYMORPHS OF A MACROCYCLIC KINASE INHIBITOR” (TURNING POINT THERAPEUTICS, INC., priority 2019, published 2022).
Read-outs that look alike come from different tables or passages of the source.

Key:
RET (M918T) = molecular target: T1, RET (M918T) (Homo sapiens, UniProt P07949, M918T); assay: Biochemical kinase assay; details: 10 μM ATP
T1 construct: purchased Reaction Biology Corporation (contract assay)
Procedure: (§1) The biochemical kinase assay was performed at Reaction Biology Corporation (www.reactionbiology.com, Malvern, Pa.) following the procedures described in the reference (Anastassiadis T, et al Nat Biotechnol. 2011, 29, 1039). Specific kinase/substrate pairs along with required cofactors were prepared in reaction buffer; 20 mM Hepes pH 7.5, 10 mM MgCl2, 1 mM EGTA, 0.02% Brij35, 0.02 mg/ml BSA, 0.1 mM Na3VO4, 2 mM DTT, 1% DMSO. Compounds were delivered into the reaction, followed ˜20 minutes later by addition of a mixture of ATP (Sigma, St. Louis Mo.) and ^33P ATP (Perkin Elmer, Waltham Mass.) to a final concentration of 10 μM. Reactions were carried out at room temperature for 120 min, followed by spotting of the reactions onto P81 ion exchange filter paper (Whatman Inc., Piscataway, N.J.). Unbound phosphate was removed by extensive washing of filters in 0.75% phosphoric acid. […] IC50 values and curve fits were obtained using Prism (GraphPad Software).

RET (R813Q) = molecular target: T2, RET (R813Q) (Homo sapiens, UniProt P07949, R813Q); assay: Biochemical kinase assay; details: 10 μM ATP
T2 construct: purchased Reaction Biology Corporation (contract assay)
Procedure: as §1

RET (L790F) = molecular target: T3, RET (L790F) (Homo sapiens, UniProt P07949, L790F); assay: Biochemical kinase assay; details: 10 μM ATP
T3 construct: purchased Reaction Biology Corporation (contract assay)
Procedure: as §1

RET (V778I) = molecular target: T4, RET (V778I) (Homo sapiens, UniProt P07949, V778I); assay: Biochemical kinase assay; details: 10 μM ATP
T4 construct: purchased Reaction Biology Corporation (contract assay)
Procedure: as §1

RET (Y806H) = molecular target: T5, RET (Y806H) (Homo sapiens, UniProt P07949, Y806H); assay: Biochemical kinase assay; details: 10 μM ATP
T5 construct: purchased Reaction Biology Corporation (contract assay)
Procedure: as §1

RET (Y791F) = molecular target: T6, RET (Y791F) (Homo sapiens, UniProt P07949, Y791F); assay: Biochemical kinase assay; details: 10 μM ATP
T6 construct: purchased Reaction Biology Corporation (contract assay)
Procedure: as §1

RET (S904F) = molecular target: T7, RET (S904F) (Homo sapiens, UniProt P07949, S904F); assay: Biochemical kinase assay; details: 10 μM ATP
T7 construct: purchased Reaction Biology Corporation (contract assay)
T7 sequence (P07949 29-1114 S904F): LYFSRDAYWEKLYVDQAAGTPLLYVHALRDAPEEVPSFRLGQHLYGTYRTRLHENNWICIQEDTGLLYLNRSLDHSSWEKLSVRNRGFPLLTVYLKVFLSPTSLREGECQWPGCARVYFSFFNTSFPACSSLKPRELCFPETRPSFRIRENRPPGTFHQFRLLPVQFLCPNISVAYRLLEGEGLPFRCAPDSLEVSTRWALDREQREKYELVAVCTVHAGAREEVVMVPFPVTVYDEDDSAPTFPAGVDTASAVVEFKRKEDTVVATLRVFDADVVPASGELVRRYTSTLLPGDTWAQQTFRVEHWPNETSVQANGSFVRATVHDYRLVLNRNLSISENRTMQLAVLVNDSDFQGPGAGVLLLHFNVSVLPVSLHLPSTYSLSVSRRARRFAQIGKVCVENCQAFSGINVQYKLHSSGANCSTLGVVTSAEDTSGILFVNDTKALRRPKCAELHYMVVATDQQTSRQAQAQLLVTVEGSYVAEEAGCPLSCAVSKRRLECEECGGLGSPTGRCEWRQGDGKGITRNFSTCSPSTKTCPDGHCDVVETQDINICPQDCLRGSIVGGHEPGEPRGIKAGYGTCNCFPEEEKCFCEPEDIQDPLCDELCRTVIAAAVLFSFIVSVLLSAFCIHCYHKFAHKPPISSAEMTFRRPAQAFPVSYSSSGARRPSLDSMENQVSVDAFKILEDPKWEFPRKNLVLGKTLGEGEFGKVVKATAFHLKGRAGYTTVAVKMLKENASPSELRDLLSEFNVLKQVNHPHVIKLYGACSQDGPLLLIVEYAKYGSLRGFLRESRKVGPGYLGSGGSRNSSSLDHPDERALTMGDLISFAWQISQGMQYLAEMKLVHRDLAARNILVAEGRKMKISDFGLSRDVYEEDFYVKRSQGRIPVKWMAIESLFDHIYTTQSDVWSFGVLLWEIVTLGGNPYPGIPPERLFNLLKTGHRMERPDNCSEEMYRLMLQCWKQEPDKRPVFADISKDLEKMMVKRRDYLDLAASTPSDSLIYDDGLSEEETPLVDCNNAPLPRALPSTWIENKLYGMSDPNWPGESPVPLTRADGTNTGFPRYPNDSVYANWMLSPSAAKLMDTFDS
Procedure: as §1

RET-CCDC6 (PTC1) = molecular target: T8, RET-CCDC6 (PTC1) (Homo sapiens, UniProt P07949); assay: Biochemical kinase assay; details: 10 μM ATP
T8 construct: CCDC6 fragment (fusion partner); purchased Reaction Biology Corporation (contract assay); the other entry of the earlier key: CCDC6 (Q16204, Coiled-coil domain-containing protein 6)
T8 sequence (P07949 with tags, fused parts or gaps): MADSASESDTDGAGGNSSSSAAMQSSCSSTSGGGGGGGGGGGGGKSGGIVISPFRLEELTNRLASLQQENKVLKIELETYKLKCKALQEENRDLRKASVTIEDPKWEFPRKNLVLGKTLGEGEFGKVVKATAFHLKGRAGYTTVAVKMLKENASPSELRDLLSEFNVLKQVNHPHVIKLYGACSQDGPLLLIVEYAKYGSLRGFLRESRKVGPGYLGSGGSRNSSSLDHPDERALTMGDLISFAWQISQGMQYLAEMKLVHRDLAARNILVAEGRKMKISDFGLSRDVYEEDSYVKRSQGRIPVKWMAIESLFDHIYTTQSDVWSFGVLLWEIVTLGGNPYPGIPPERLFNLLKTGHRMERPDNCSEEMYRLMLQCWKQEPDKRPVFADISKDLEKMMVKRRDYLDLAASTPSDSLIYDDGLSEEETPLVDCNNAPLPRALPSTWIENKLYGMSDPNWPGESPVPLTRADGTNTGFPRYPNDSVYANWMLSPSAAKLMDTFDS
Procedure: as §1

Ba/F3 KIF5B-RET [1] = molecular target: T9, Ba/F3 KIF5B-RET (Homo sapiens, UniProt P07949); assay: Cell proliferation assay (CellTiter-Glo); type: cell-based; details: anti-cell proliferation, 72 hours; read-out: Ba/F3 KIF5B-RET IC50
T9 construct: Ba/F3 KIF5B-RET IC50 (nM); other: anti-cell proliferation, 72 hours; fused on or other part: P33176 (Kinesin-1 heavy chain)
T9 sequence (P07949 whole entry, change not shown, the tested form may be a part): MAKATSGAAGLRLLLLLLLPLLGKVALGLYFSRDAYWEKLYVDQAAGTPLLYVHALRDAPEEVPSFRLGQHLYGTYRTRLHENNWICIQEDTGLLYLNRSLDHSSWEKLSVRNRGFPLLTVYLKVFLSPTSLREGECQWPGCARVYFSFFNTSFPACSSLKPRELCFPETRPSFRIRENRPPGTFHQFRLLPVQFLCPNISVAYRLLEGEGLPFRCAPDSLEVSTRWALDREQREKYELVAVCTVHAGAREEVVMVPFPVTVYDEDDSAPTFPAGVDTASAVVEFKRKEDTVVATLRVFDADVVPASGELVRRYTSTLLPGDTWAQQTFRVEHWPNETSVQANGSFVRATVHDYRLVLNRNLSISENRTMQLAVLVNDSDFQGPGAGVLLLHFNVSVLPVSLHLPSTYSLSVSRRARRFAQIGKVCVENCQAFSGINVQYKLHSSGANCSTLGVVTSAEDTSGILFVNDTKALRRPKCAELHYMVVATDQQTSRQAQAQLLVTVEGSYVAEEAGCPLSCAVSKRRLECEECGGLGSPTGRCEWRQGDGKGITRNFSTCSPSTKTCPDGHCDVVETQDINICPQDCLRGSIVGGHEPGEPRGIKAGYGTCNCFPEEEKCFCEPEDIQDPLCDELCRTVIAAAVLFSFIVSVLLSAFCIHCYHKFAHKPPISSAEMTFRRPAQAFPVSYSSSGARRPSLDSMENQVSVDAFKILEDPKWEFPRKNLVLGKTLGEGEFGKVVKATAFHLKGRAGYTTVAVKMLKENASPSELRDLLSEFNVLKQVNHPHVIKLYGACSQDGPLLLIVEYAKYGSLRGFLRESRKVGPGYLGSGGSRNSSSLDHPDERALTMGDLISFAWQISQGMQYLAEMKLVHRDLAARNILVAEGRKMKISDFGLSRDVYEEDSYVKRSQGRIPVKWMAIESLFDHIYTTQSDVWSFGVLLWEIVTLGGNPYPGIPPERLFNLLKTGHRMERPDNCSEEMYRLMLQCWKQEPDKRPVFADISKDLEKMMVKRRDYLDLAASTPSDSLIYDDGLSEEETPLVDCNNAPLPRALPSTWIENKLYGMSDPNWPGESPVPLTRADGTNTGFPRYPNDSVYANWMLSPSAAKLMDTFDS
Text: (§2) The KIF5B-RET gene was synthesized at GenScript and cloned into pCDH-CMV-MCS-EF1-Puro plasmid (System Biosciences, Inc). KIF5B-RET point mutation V804M and G810C were generated at GenScript by PCR and confirmed by sequencing. Ba/F3-KIF5B-RET wild type and mutant were generated by transducing Ba/F3 cells with lentivirus containing KIF5B-RET wide type or mutant. Stable cell lines were selected by puromycin treatment, followed by IL-3 withdrawal. Briefly, 5×10^6 Ba/F3 cells were transduced with lentivirus supernatant in the presence of 8 μg/mL protamine sulfate. The transduced cells were subsequently selected with 1 μg/mL puromycin in the presence of IL3-containing medium RPMI1640, plus 10% FBS. After 10-12 days of selection, the surviving cells were further selected for […] independent growth.
(§3) Two thousand cells per well were seeded in 384 well white plate for 24 hrs, and then treated with compounds for 72 hours (37° C., 5% CO2). Cell proliferation was measured using CellTiter-Glo luciferase-based ATP detection assay (Promega) following the manufactures's protocol. IC50 determinations were performed using GraphPad Prism software (GraphPad, Inc., San Diego, Calif.).

Ba/F3 KIF5B-RET_G810C = molecular target: T10, Ba/F3 KIF5B-RET_G810C (Homo sapiens, UniProt P07949, G810C, cells depend on it); assay: Cell proliferation assay (CellTiter-Glo); type: cell-based; details: anti-cell proliferation, 72 hours; read-out: Ba/F3 KIF5B-RET_G810C IC50
T10 construct: fused on or other part: P33176 (Kinesin-1 heavy chain)
T10 sequence (P07949 whole entry G810C, the tested form may be a part): as the sequence (P07949 whole entry, change not shown, the tested form may be a part) above, with G810C counted along it
Text: as §2, §3

Ba/F3 KIF5B-RET_V804M = molecular target: T11, Ba/F3 KIF5B-RET_V804M (Homo sapiens, UniProt P07949, V804M, cells depend on it); assay: Cell proliferation assay (CellTiter-Glo); type: cell-based; details: anti-cell proliferation, 72 hours; read-out: Ba/F3 KIF5B-RET_V804M IC50
T11 construct: fused on or other part: P33176 (Kinesin-1 heavy chain)
Text: as §2, §3

Ba/F3 EML4-ALK = molecular target: T12, Ba/F3 EML4-ALK (Homo sapiens, UniProt Q9UM73); assay: Cell proliferation assay (CellTiter-Glo); type: cell-based; details: anti-cell proliferation, 72 hours
T12 construct: fused on or other part: Q9HC35 (Echinoderm microtubule-associated protein-like 4)
Procedure: The EML4-ALK gene (variant 1) was synthesized at GenScript and cloned into pCDH-CMV-MCS-EF1-Puro plasmid (System Biosciences, Inc). Ba/F3-EML4-ALK wild type were generated by transducing Ba/F3 cells with lentivirus containing EML4-ALK wide type. Stable cell lines were selected by puromycin treatment, followed by IL-3 withdrawal. Briefly, 5×10^6 Ba/F3 cells were transduced with lentivirus supernatant in the presence of 8 μg/mL protamine sulfate. The transduced cells were subsequently selected with 1 μg/mL puromycin in the presence of IL3-containing medium RPMI1640, plus 10% FBS. After 10-12 days of selection, the surviving cells were further selected for IL3 independent growth.
as §3

Ba/F3 KIF5B-RET G810C = molecular target: T13, Ba/F3 KIF5B-RET G810C (Homo sapiens, UniProt P07949, G810C); assay: RET-G810C autophosphorylation (Y905) by immunoblotting in Ba/F3 engineered cells; type: cell-based; details: 4 hours incubation, read-out: IC50, RET-G810C phosphorylation at residue Y905
T13 construct: KIF5B fragment (fusion partner); expressed in transfected cells; host or cells: Ba/F3 cells, lentiviral transduction (pCDH-CMV-MCS-EF1-Puro); the other entry of the earlier key: KIF5B (P33176, Kinesin-1 heavy chain)

Ba/F3 KIF5B-RET [2] = molecular target: T14, Ba/F3 KIF5B-RET (Homo sapiens, UniProt P07949, cells depend on it, form not given); assay: Compound I anti-cell proliferation comparison (FIG. 5A, 5B); type: cell-based; details: for GI50: read-out: IC50 (the source's name)
T14 construct: IC50 (nM); other: Experiment 1; other: Experiment 2; fused on or other part: P33176 (Kinesin-1 heavy chain)
T14 sequence (P07949 whole entry G810C, form open, the tested form may be a part): as the sequence (P07949 whole entry, change not shown, the tested form may be a part) above, with G810C counted along it
Text: as §2, §3

C[C@H]1CNC(=O)c2cnn3cc4c(nc23)N(Cc2cc(F)cnc2O1)[C@@H]1CCC[C@@H]1O4 [Compound I, (3aR,11S,20aS)-7-fluoro-11-methyl-2,3,3a,12,13,20a-hexahydro-1H,5H-17,19-(metheno)cyclopenta[5,6][1,4]oxazino[3,4-i]pyrazolo[4,3-f]pyrido[3,2-l][1,4,8,10]oxatriazacyclotridecin-14(11H)-one]
IC50 (RET (M918T)): 0.3 nM
IC50 (RET (R813Q)): 1.7 nM
IC50 (RET (L790F)): 0.4 nM
IC50 (RET (V778I)): 0.1 nM
IC50 (RET (Y806H)): 2.6 nM
IC50 (RET (Y791F)): 0.4 nM
IC50 (RET (S904F)): 0.5 nM
IC50 (RET-CCDC6 (PTC1)): 0.5 nM
GI50 (Ba/F3 KIF5B-RET [1]): 0.25 nM
GI50 (Ba/F3 KIF5B-RET_G810C): < 15 nM
GI50 (Ba/F3 KIF5B-RET_V804M): 1000 nM
GI50 (Ba/F3 EML4-ALK): 211 nM
IC50 (Ba/F3 KIF5B-RET G810C): 1 to 3 nM
IC75 (Ba/F3 KIF5B-RET [2]; Experiment 1): 28.8 nM
IC90 (Ba/F3 KIF5B-RET [2]; Experiment 1): 86.4 nM
GI50 (Ba/F3 KIF5B-RET [2]; Experiment 1): 9.6 nM
IC75 (Ba/F3 KIF5B-RET [2]; Experiment 2): 39.9 nM
IC90 (Ba/F3 KIF5B-RET [2]; Experiment 2): 120 nM
GI50 (Ba/F3 KIF5B-RET [2]; Experiment 2): 13.3 nM
